“Also recorded” adds a separate entry of the source. Read-outs that look alike come from different tables or passages of the source.
Assays:
mouse 9cRDH = target: T1, mouse 9cRDH (Mus musculus, UniProt O55240); assay: Inhibition of recombinant mouse 9cRDH activity (9-cis-retinol oxidation, CHO cell homogenate, HPLC); assay type: biochemical; details: for inhibition of mouse 9cRDH activity (in words): 10 μM 9-cis-retinol
T1 sequence (O55240 1-318): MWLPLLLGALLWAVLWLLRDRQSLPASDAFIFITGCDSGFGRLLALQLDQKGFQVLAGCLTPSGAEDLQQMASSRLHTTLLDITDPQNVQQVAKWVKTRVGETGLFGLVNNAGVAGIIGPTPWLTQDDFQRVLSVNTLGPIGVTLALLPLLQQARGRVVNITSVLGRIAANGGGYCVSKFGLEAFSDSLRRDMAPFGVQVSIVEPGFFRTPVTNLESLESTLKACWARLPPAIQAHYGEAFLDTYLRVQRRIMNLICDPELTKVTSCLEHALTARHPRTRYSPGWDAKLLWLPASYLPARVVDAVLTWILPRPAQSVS

[1] = target: T2, human 9-cis retinol dehydrogenase (9cRDH) (Homo sapiens, UniProt Q92781); assay: Inhibition of recombinant human 9cRDH activity (9-cis-retinol oxidation, CHO cell homogenate, HPLC); assay type: biochemical; details: for inhibition of human 9cRDH activity (in words) / IC50: 10 μM 9-cis-retinol; for IC50: 15 min, 37° C., CHO cell homogenate, read-out: Estimated inhibitor concentration resulting in 50% inhibition of human 9-cis retinol dehydrogenase activity (ID50)
T2 sequence (Q92781 1-318): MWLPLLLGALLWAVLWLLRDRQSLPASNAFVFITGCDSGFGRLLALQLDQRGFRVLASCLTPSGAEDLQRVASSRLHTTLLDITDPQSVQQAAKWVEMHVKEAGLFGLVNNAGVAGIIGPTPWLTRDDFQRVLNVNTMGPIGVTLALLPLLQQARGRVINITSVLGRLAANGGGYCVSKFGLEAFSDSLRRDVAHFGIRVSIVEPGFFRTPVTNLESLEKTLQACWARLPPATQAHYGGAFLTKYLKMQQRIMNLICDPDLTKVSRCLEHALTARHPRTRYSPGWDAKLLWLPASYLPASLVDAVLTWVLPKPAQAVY

[2] = 10 μM steroid, equimolar to substrate, forward (retinol oxidation) or reverse (retinaldehyde reduction) direction
[3] = phenylarsine oxide 15 μM, carbenoxolone 0.5 mM, all others 1 mM
[4] = NaCl up to 1 M, β-mercaptoethanol, dithiothreitol 1 mM, Triton X-100, sodium cholate 1% (w/v)
[5] = […] 15 μM, carbenoxolone 0.5 mM, all others 1 mM

Molecule: C[C@]12CCC(=O)C=C1CC[C@@H]1[C@@H]2CC[C@]2(C)C(=O)CC[C@@H]12 [4-androstene-3,17dione]
- inhibition of mouse 9cRDH activity by hydroxysteroids (mouse 9cRDH; [2]): none of these hydroxysteroids inhibited
- inhibition of human 9cRDH activity by hydroxysteroids [1, 2]: none of these hydroxysteroids inhibited

Molecule: Cc1cn[nH]c1 [4-methylpyrazole]
- influence of SCAD/alcohol dehydrogenase inhibiting reagents on recombinant mouse 9cRDH activity (mouse 9cRDH; [3]): none of these compounds influenced
- influence of SCAD/alcohol dehydrogenase inhibiting reagents on recombinant human 9cRDH activity [1, 3]: none of these compounds influenced

Molecule: C[C@]12CCC(=O)C[C@@H]1CC[C@@H]1[C@@H]2CC[C@]2(C)C(=O)CC[C@@H]12 [5α-androstane-3,17dione]
- inhibition of mouse 9cRDH activity by hydroxysteroids (mouse 9cRDH): none of these hydroxysteroids inhibited
- inhibition of human 9cRDH activity by hydroxysteroids [1]: none of these hydroxysteroids inhibited

Molecule: C[C@]12CC[C@H](O)C[C@@H]1CC[C@@H]1[C@@H]2CC[C@]2(C)[C@@H](O)CC[C@@H]12 [5α-androstane-3β, 17βdiol]
- inhibition of mouse 9cRDH activity by hydroxysteroids (mouse 9cRDH; [2]): none of these hydroxysteroids inhibited
- inhibition of human 9cRDH activity by hydroxysteroids [1, 2]: none of these hydroxysteroids inhibited

Molecule: O=C(O)CN(CCN(CC(=O)O)CC(=O)O)CC(=O)O [EDTA]
- effect on 9cRDH activity expressed in CHO cells (first series) [1, 4]: not inhibited

Molecule: CCCCCCCC/C=C\CCCCCCCC(=O)O [Oleic Acid, oleic acid]
- inhibition of mouse 9cRDH activity (in words) (mouse 9cRDH): only very weak inhibitors
- times (fold) less potent than 13-cis retinoic acid as inhibitor of 9cRDH [1]: approximately 100
- inhibition of human 9cRDH activity (in words) [1]: mild inhibitor; also recorded: only very weak inhibitors; also recorded: weakly inhibited
- IC50 [1]: 15 µM

Molecule: CCCCCCCC/C=C\CCCCCCCCO [Oleyl Alcohol, oleyl alcohol]
- inhibition of mouse 9cRDH activity (in words) (mouse 9cRDH): only very weak inhibitors
- inhibition of human 9cRDH activity (in words) [1]: did not inhibit; also recorded: only very weak inhibitors; also recorded: not an inhibitor
- IC50 [1]: > 100 µM

Molecule: CCCCCCCCCCCCCCCC(=O)O [Palmitic Acid, palmitic acid]
- inhibition of mouse 9cRDH activity (in words) (mouse 9cRDH): only very weak inhibitors
- IC50 [1]: > 100 µM
- inhibition of human 9cRDH activity (in words) ([1]; listed as Palmitic acid): not an inhibitor
- inhibition of human 9cRDH activity (in words) ([1]; listed as palmitic acid): not inhibitory; also recorded: only very weak inhibitors

Molecule: CCCCCCCCCCC/C=C\CCCCCO [Petroselinyl Alcohol, petroselinyl alcohol]
- inhibition of mouse 9cRDH activity (in words) (mouse 9cRDH): only very weak inhibitors
- inhibition of human 9cRDH activity (in words) [1]: did not inhibit; also recorded: not an inhibitor
- IC50 [1]: > 100 µM
- inhibition of human 9cRDH activity (in words) ([1]; listed as petrosenlinyl alcohol): only very weak inhibitors

Molecule: CC1(C)[C@@H](OC(=O)CCC(=O)O)CC[C@]2(C)[C@H]3C(=O)C=C4[C@@H]5C[C@@](C)(C(=O)O)CC[C@]5(C)CC[C@@]4(C)[C@]3(C)CC[C@@H]12 [carbenoxolone]
- influence of SCAD/alcohol dehydrogenase inhibiting reagents on recombinant mouse 9cRDH activity (mouse 9cRDH; [3]): none of these compounds influenced
- influence of SCAD/alcohol dehydrogenase inhibiting reagents on recombinant human 9cRDH activity [1, 3]: none of these compounds influenced

Molecule: CC(C)=CCCC(C)=CC=O [citral]
- influence of SCAD/alcohol dehydrogenase inhibiting reagents on recombinant mouse 9cRDH activity (mouse 9cRDH; [5]): none of these compounds influenced
- influence of SCAD/alcohol dehydrogenase inhibiting reagents on recombinant human 9cRDH activity [1, 5]: none of these compounds influenced

Molecule: C[C@]12C[C@H](O)[C@H]3[C@@H](CCC4=CC(=O)CC[C@@]43C)[C@@H]1CC[C@@H]2C(=O)CO [corticosterone]
- inhibition of mouse 9cRDH activity by hydroxysteroids (mouse 9cRDH; [2]): none of these hydroxysteroids inhibited
- inhibition of human 9cRDH activity by hydroxysteroids [1, 2]: none of these hydroxysteroids inhibited

Molecule: C[C@]12CCC(=O)C=C1CC[C@@H]1[C@@H]2C(=O)C[C@@]2(C)[C@H]1CC[C@]2(O)C(=O)CO [cortisone]
- inhibition of mouse 9cRDH activity by hydroxysteroids (mouse 9cRDH; [2]): none of these hydroxysteroids inhibited
- inhibition of human 9cRDH activity by hydroxysteroids [1, 2]: none of these hydroxysteroids inhibited

Molecule: CCN(CC)C(=S)SSC(=S)N(CC)CC [disulfuran]
- influence of SCAD/alcohol dehydrogenase inhibiting reagents on recombinant mouse 9cRDH activity (mouse 9cRDH; [5]): none of these compounds influenced
- influence of SCAD/alcohol dehydrogenase inhibiting reagents on recombinant human 9cRDH activity [1, 5]: none of these compounds influenced

Molecule: CCO [ethanol]
- inhibition of mouse 9cRDH activity (in words) (mouse 9cRDH): not inhibited
- inhibition of human 9cRDH activity (in words) [1]: not inhibited
- effect on 9cRDH activity expressed in CHO cells (first series) [1, 4]: not inhibited

Molecule: C[C@]12CCC(=O)C=C1CC[C@@H]1[C@@H]2[C@@H](O)C[C@@]2(C)[C@H]1CC[C@]2(O)C(=O)CO [hydrocortisone]
- inhibition of mouse 9cRDH activity by hydroxysteroids (mouse 9cRDH; [2]): none of these hydroxysteroids inhibited
- inhibition of human 9cRDH activity by hydroxysteroids [1, 2]: none of these hydroxysteroids inhibited

Molecule: c1cnc2c(c1)ccc1cccnc12 [o-phenanthroline, 1,10-phenanthroline]
- influence of SCAD/alcohol dehydrogenase inhibiting reagents on recombinant mouse 9cRDH activity (mouse 9cRDH; [3]): none of these compounds influenced
- effect on 9cRDH activity expressed in CHO cells (first series) [1, 4]: not inhibited
- influence of SCAD/alcohol dehydrogenase inhibiting reagents on recombinant human 9cRDH activity [1, 3]: none of these compounds influenced

Molecule: C[C@]12C=CC(=O)C=C1CC[C@@H]1[C@@H]2C(=O)C[C@@]2(C)[C@H]1CC[C@]2(O)C(=O)CO [prednisone]
- inhibition of mouse 9cRDH activity by hydroxysteroids (mouse 9cRDH; [2]): none of these hydroxysteroids inhibited
- inhibition of human 9cRDH activity by hydroxysteroids [1, 2]: none of these hydroxysteroids inhibited

Molecule: CC(=O)[C@H]1CC[C@H]2[C@@H]3CCC4=CC(=O)CC[C@]4(C)[C@H]3CC[C@]12C [progesterone]
- inhibition of mouse 9cRDH activity by hydroxysteroids (mouse 9cRDH; [2]): none of these hydroxysteroids inhibited
- inhibition of human 9cRDH activity by hydroxysteroids [1, 2]: none of these hydroxysteroids inhibited

Molecule: C[C@H](CCC(=O)[O-])[C@H]1CC[C@H]2[C@@H]3[C@H](O)C[C@@H]4C[C@H](O)CC[C@]4(C)[C@H]3C[C@H](O)[C@]12C.[Na+] [sodium cholate]
- effect on 9cRDH activity expressed in CHO cells (first series) [1]: rapidly inactivated

Molecule: CC(=O)[O-].CC(=O)[O-].[Zn+2] [zinc acetate]
- influence of SCAD/alcohol dehydrogenase inhibiting reagents on recombinant mouse 9cRDH activity (mouse 9cRDH): none of these compounds influenced
- influence of SCAD/alcohol dehydrogenase inhibiting reagents on recombinant human 9cRDH activity [1]: none of these compounds influenced

Molecule: C[C@]12CC[C@@H]3c4ccc(O)cc4CC[C@H]3[C@@H]1CC[C@@H]2O [β-estradiol]
- inhibition of mouse 9cRDH activity by hydroxysteroids (mouse 9cRDH; [2]): none of these hydroxysteroids inhibited
- inhibition of human 9cRDH activity by hydroxysteroids [1, 2]: none of these hydroxysteroids inhibited

Molecule: Triton X-100
- effect on 9cRDH activity expressed in CHO cells (first series) [1]: rapidly inactivated

— patent publication US7186534B1 (The Trustees of Columbia University in the City of New York, priority 1997, dated 2007)
